Measurements taken from patent publication US12338199B2, “Bis-octahydrophenanthrene carboxamides and protein conjugates thereof” (REGENERON PHARMACEUTICALS, INC., priority 2017, dated 2025).
Where a name gives a salt, the structure may show the parent alone. Read-outs that look alike come from different tables or passages of the source.

How the values were obtained:
LXR alpha = biological target: T1, LXR alpha (Homo sapiens, UniProt Q13133); assay: LanthaScreen TR-FRET LXR alpha Coactivator Assay (cell-free binding)
T1 construct: LXR alpha or beta LBD-GST; purchased ThermoFisher PV4655
T1 sequence (Q13133 209-447 limits assumed): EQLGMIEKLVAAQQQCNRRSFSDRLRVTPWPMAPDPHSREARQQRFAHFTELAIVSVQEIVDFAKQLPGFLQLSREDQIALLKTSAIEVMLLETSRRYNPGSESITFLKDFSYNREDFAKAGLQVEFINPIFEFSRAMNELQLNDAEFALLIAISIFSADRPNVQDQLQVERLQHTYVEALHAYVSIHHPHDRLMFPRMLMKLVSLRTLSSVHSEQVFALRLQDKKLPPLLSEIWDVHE
Description: (§1) To evaluate the ability of novel LXR agonists to bind to the LXR alpha and beta receptor, a cell-free binding assay was performed using a LanthaScreen TR-FRET LXR alpha Coactivator Assay Kit (ThermoFisher, Cat # PV4655) and LXR beta Coactivator Assay Kit (ThermoFisher, Cat # PV4658). The assay was performed according to the manufacturer's instructions. Briefly, a 3-fold serial dilution of LXR agonists were prepared in 100% DMSO starting at 100 μM (100× of final). Serial dilutions were further diluted 50-fold in nuclear receptor buffer F with 5 mM DTT, and transferred to a 384-well assay plate. Next, Fluorescein-D22, LXR alpha or beta LBD-GST, and Tb anti-GST antibody was sequentially added to 384-well assay plate. The plate was then incubated at rt for 2.5 hours while being protected from light. […] The IC50 values were determined using a four-parameter logistic equation over a 12-point response curve (GraphPad Prism).

THP1/LXR-Luc cells [1] = assay: THP1/LXR-Luc luciferase reporter bioassay; type: cell-based; details: Homo sapiens, THP-1, 48 hours; for EC50: read-out: Activation of THP1/LXR-Luc cells: EC50; for Emax: relative to maximum activation of free payload 9d, read-out: Activation of THP1/LXR-Luc cells: Fold of activation
Excerpt: The fold activation in the cell-based assays (as described in Example 68, below) was defined based on the maximum activation of the free payload 9d.
(§2) A bioassay was developed to assess the activity of LXR agonists after internalization of an agonist or of a ncADC into cells and binding to LXR, a nuclear receptor, using a commercially available LXR reporter (referred to as LXR-Luc) that contains the firefly luciferase gene under control by minimal CMV promoter and tandem repeats of the LXR transcriptional response element. For this assay, a THP1 cell line, which is a human monocytic leukaemia line, was engineered to express full length human Her2 (expressing amino acids M1 through V1255 of accession number NP_004439.2). The subsequent stable cell line was further transduced with a Cignal LXR Luc Reporter (Qiagen, Cat # CLS-7041L). The resulting stable cell line is referred to herein as THP1/Her2/LXR-Luc. The Her2 cell surface expression on THP1/Her2/LXR-Luc cell line was confirmed by FACS (data not shown).
Additionally, a THP1 cell line was transduced with a Cignal LXR Luc Reporter (Qiagen, Cat # CLS-7041L) without the addition of Her2. The resulting stable cell line is referred to herein as THP1/LXR-Luc. All of the antibodies used in the subsequent bioassays were assessed for their ability to internalize and release a payload on the bioassay cell line used.
(§3) This example assessed the ability of the LXR agonists provided herein, reference compounds, and anti-Her2 antibody-LXR ncADC to activate LXR. The samples were tested in the THP1/LXR-Luc/Her2 bioassay. For the assay, either THP1/LXR-Luc cells or THP1/LXR-Luc/Her2 cells were seeded onto white 96 well plates at 30,000 cells/well in media containing RPMI supplemented with 10% FBS and pencillin/streptomycin (complete media). Subsequently 3-fold serial dilutions of antibody drug conjugates, unconjugated antibodies, or free payloads were added to the cells at final concentration ranging from 100 nM to 0.01 nM. After 48-hour or 72-hour incubation, luciferase activity was determined after the addition of One-Glo™ reagent (Promega, Cat # E6130) to each well of cells. Relative light units (RLUs) were measured on a Victor luminometer (PerkinElmer) and the EC5o values were determined using a four-parameter logistic equation over a 10-point dose response curve (GraphPad Prism) (FIG. 15). The fold activation is calculated based on the maximum activation of the free payload 9d.

LXR beta = biological target: T2, LXR beta (Homo sapiens, UniProt P55055); assay: LanthaScreen TR-FRET LXR beta Coactivator Assay (cell-free binding)
T2 construct: LXR alpha or beta LBD-GST; purchased ThermoFisher PV4658
T2 sequence (P55055 222-460 limits assumed): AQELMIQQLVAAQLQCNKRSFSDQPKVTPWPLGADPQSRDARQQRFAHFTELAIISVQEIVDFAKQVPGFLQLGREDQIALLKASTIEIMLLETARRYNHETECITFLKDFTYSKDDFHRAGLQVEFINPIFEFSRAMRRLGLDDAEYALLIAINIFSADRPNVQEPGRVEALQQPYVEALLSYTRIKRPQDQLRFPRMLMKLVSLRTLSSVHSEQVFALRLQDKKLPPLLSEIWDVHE
Description: as §1

THP1/LXR-Luc/Her2 cells = assay: THP1/LXR-Luc/Her2 luciferase reporter bioassay; type: cell-based; details: Homo sapiens
Excerpt: as §2, §3

THP1/LXR-Luc cells [2] = assay: LXR-luciferase reporter bioassay in PMA-differentiated THP1/LXR-Luc cells; type: cell-based, human; details: for EC50: Homo sapiens, THP-1, 48 h, read-out: EC50; for S/N (signal to noise, ratio of RLU of standard one over RLU of standard eight): luciferase activity
Excerpt: To test the efficacy of anti-MSR1 antibody-LXR conjugates in vitro, a cell-based LXR responsive luciferase reporter assay was developed. To generate the assay cell line, a LXR regulated luciferase reporter gene [Cignal Lenti LXR Reporter (luc) kit (Qiagen, Cat # CLS-001L)] was transduced into THP1 cells, and cells were selected for two weeks in puromycin. The lentivirus expresses the firefly luciferase gene under the control of a minimal CMV promoter and tandem repeats of the LXR transcriptional response element. The resulting cell line is referred to as THP1/LXR-Luc cells.
THP1/LXR-Luc cells were seeded onto 96 well plates at 40,000 cells/well in media containing RPMI supplemented with 10% FBS and pencillin/streptomycin and subsequently differentiated with 200 nM Phorbol Myristate Acetate (PMA) for 3 days. After the 3-day differentiation period, three-fold serial dilutions of antibody drug conjugates, unconjugated antibodies, or free payloads in fresh media were added to the cells at final concentration ranging from 100 nM to 0.01 nM. Media alone served as a blank control. Forty-eight hours later, luciferase activity was determined after the addition of One-Glo™ reagent (Promega, Cat # E6130) to each well. Relative light units (RLUs) were measured on a Victor luminometer (PerkinElmer) and EC50 values were determined using a four-parameter logistic equation over a 10-point dose response curve (GraphPad Prism). The signal to noise (S/N) was determined by calculating the ratio of RLU of standard one over RLU of standard eight for each of the unconjugated anti-MSR1 antibodies or free payloads. “LP #” represents a linker-payload for which the corresponding structures are provided elsewhere herein, and “P #” represents a payload for which the corresponding structures are provided elsewhere herein.

[3] = Water solubility and pH stability of phosphate analogs; type: physicochemical; details: pH as given in the value; 17c converted to 17b in the presence of methanol
Excerpt: The phosphoric acid-analog 17a was obtained from the treatment of phenol 9g with diphosphoryl chloride 18. Compounds 17b and 17c were obtained from the acidic deprotection of 17a with TFA.

[4] = TR-FRET, 12-point curve, read-out: Cell free binding LXRα IC50
[5] = TR-FRET, 12-point curve, read-out: Cell free binding LXRβ IC50
[6] = 48-hour time point, stimulation of THP1/Luc cells
[7] = PMA-differentiated THP1/LXR-Luc cells, 48 hours, luciferase activity (One-Glo), 10-point dose response 100 nM to 0.01 nM
[8] = PMA-differentiated THP1/LXR-Luc cells, 48 hours

SMILES	IC50 (LXR alpha; [4])	EC50 (THP1/LXR-Luc cells [1])	Emax (THP1/LXR-Luc cells [1])	IC50 (LXR beta; [5])	EC50 (THP1/LXR-Luc/Her2 cells; THP-1, 48 h, 48-hour time point)	EC50 (THP1/LXR-Luc/Her2 cells; THP-1, 48 h, 48 hours, unit inferred, values correspond to M)	EC50 (THP1/LXR-Luc/Her2 cells; THP-1, 72 h, 72-hour time point)	EC50 (THP1/LXR-Luc/Her2 cells; THP-1, 72 h, 72 hours)	EC50 (THP1/LXR-Luc cells [2]; [6])	EC50 (THP1/LXR-Luc cells [2]; [7])	S/N (signal to noise, ratio of RLU of standard one over RLU of standard eight) (THP1/LXR-Luc cells [2]; [8])	IC50 (LXR alpha)	IC50 (LXR beta)	Stability [3]
C[C@]1(C(=O)NC(=O)[C@@]2(C)CCC[C@]3(C)c4cc(NC(=O)[C@@H](N)CO)ccc4CC[C@@H]23)CCC[C@]2(C)c3cc(O)ccc3CC[C@@H]12 [Compound 9j, (1S,4aS,10aR)-6-((S)-2-Amino-3-hydroxypropanamido)-N-((1S,4aS,10aR)-6-hydroxy-1,4a-dimethyl-1,2,3,4,4a,9,10,10a-octahydrophenanthrene-1-carbonyl)-1,4a-dimethyl-1,2,3,4,4a,9,10,10a-octahydrophenanthrene-1-carboxamide]	< 10 nM	≤ 1 nM	> 75%	< 10 nM	0.39 nM	0.39 nM	0.47 nM	0.47 nM	0.37 to 2.09 nM	0.46 nM	5.7			
COP(=O)(O)Oc1ccc2c(c1)[C@@]1(C)CCC[C@](C)(C(=O)NC(=O)[C@@]3(C)CCC[C@]4(C)c5cc(N)ccc5CC[C@@H]34)[C@@H]1CC2 [Compound 17b, (4bS,8S,8aR)-8-((1S,4aS,10aR)-6-Amino-1,4a-dimethyl-1,2,3,4,4a,9,10,10a-octahydrophenanthrene-1-carbonylcarbamoyl)-4b,8-dimethyl-4b,5,6,7,8,8a,9,10-octahydrophenanthren-3-yl methyl hydrogen phosphate]		10 to 100 nM	> 75%									10 to 100 nM	< 10 nM	stable at pH 5-8
C[C@]1(C(=O)NC(=O)[C@@]2(C)CCC[C@]3(C)c4cc(NC(=O)[C@@H](N)CCCCN)ccc4CC[C@@H]23)CCC[C@]2(C)c3cc(O)ccc3CC[C@@H]12 [Compound 9l, (1S,4aS,10aR)—N-[(1S,4aS,10aR)-6-Hydroxy-1,4a-dimethyl-1,2,3,4,4a,9,10,10a-octahydrophenanthrene-1-carbonyl]-6-[(2S)-2,6-diaminohexanamido]-1,4a-dimethyl-1,2,3,4,4a,9,10,10a-octahydrophenanthrene-1-carboxamide; Trifluoroacetic Acid Salt]	10 to 100 nM	1 to 10 nM	> 75%	10 to 100 nM					0.37 to 2.09 nM	2.09 nM	8.9			
C[C@]1(C(=O)NC(=O)[C@@]2(C)CCC[C@]3(C)c4cc(OCCO)ccc4CC[C@@H]23)CCC[C@]2(C)c3cc(O)ccc3CC[C@@H]12 [Compound 9b, (1S,4aS,10aR)-6-Hydroxy-N-((1S,4aS,10aR)-6-(2-hydroxyethoxy)-1,4a-dimethyl-1,2,3,4,4a,9,10,10a-octahydrophenanthrene-1-carbonyl)-1,4a-dimethyl-1,2,3,4,4a,9,10,10a-octahydrophenanthrene-1-carboxamide]	< 10 nM	1 to 10 nM	> 75%	< 10 nM										
C[C@]1(C(=O)NC(=O)[C@@]2(C)CCC[C@]3(C)c4cc(N5CCNCC5)ccc4CC[C@@H]23)CCC[C@]2(C)c3cc(O)ccc3CC[C@@H]12 [Compound 9e, (1S,4aS,10aR)—N-((1S,4aS,10aR)-1,4a-Dimethyl-6-(piperazin-1-yl)-1,2,3,4,4a,9,10,10a-octahydrophenanthrene-1-carbonyl)-6-hydroxy-1,4a-dimethyl-1,2,3,4,4a,9,10,10a-octahydrophenanthrene-1-carboxamide]	< 10 nM	1 to 10 nM	> 75%	< 10 nM										
C[C@]1(C(=O)NC(=O)[C@@]2(C)CCC[C@]3(C)c4cc(NC(=O)CCCC(=O)O)ccc4CC[C@@H]23)CCC[C@]2(C)c3cc(O)ccc3CC[C@@H]12 [Compound 9q, 4-{[(4bS,8S,8aR)-8-{[(1S,4aS,10aR)-6-Hydroxy-1,4a-dimethyl-1,2,3,4,4a,9,10,10a-octahydrophenanthrene-1-carbonyl]carbamoyl}-4b,8-dimethyl-4b,5,6,7,8,8a,9,10-octahydrophenanthren-3-yl]carbamoyl}butanoic Acid]	< 10 nM	10 to 100 nM	> 75%	< 10 nM										
C[C@]1(C(=O)NC(=O)[C@@]2(C)CCC[C@]3(C)c4cc(NC(=O)[C@@H](N)CCC(=O)O)ccc4CC[C@@H]23)CCC[C@]2(C)c3cc(O)ccc3CC[C@@H]12 [Compound 9o, (4S)-4-Amino-4-{[(4bS,8S,8aR)-8-{[(1S,4aS,10aR)-6-hydroxy-1,4a-dimethyl-1,2,3,4,4a,9,10,10a-octahydrophenanthrene-1-carbonyl]carbamoyl}-4b,8-dimethyl-4b,5,6,7,8,8a,9,10-octahydrophenanthren-3-yl]carbamoyl}butanoic acid; Trifluoroacetic Acid Salt]	10 to 100 nM	≤ 1 nM	> 75%	< 10 nM					0.37 to 2.09 nM	0.37 nM	8.3			
